Measurements as given in ChEMBL document CHEMBL1201862, “PubChem BioAssay data set” (2004).
“And” between values parts separate entries of the source, which are not always exact repeats. Identical values can stand only once. The source made the active and inactive calls.

How the values were obtained:
[1] = target: T1, Polyadenylate-binding protein 1 (Homo sapiens, UniProt P11940); assay: MLLE domain peptide-binding blockers, IC50 – biochemical, fluorescence polarization, FITC-PAM2 peptide, dose response (AID 602259); type: functional; conditions: read-out: IC50_Mean
[2] = target: Tyrosine-protein phosphatase non-receptor type 11 (Homo sapiens, UniProt Q06124); assay: PTPN11 enzyme inhibitors – biochemical, selectivity assay for STEP inhibitor project, dose response (AID 602367); type: functional; conditions: read-out: IC50_Mean
[3] = target: T2, Dual specificity protein phosphatase 3 (Homo sapiens, UniProt P51452); assay: VHR1 phosphatase inhibitors, primary screen, biochemical, absorbance, uHTS (AID 1654)
[4] = target: T1, Polyadenylate-binding protein 1; assay: MLLE binding blockers, Cy5 peptide tracer – biochemical, fluorescence polarization, Cy5-PAM2 peptide, secondary, miRNA deadenylation inhibitor project, dose response (AID 602260); type: functional; conditions: read-out: IC50_Mean
[5] = target: T3, Dual specificity protein phosphatase 6 (Rattus norvegicus, UniProt Q64346); assay: inhibition of rat DUSP6 enzyme activity – biochemical, in vitro, primary screen (AID 425)
T3 sequence (Q64346 whole entry): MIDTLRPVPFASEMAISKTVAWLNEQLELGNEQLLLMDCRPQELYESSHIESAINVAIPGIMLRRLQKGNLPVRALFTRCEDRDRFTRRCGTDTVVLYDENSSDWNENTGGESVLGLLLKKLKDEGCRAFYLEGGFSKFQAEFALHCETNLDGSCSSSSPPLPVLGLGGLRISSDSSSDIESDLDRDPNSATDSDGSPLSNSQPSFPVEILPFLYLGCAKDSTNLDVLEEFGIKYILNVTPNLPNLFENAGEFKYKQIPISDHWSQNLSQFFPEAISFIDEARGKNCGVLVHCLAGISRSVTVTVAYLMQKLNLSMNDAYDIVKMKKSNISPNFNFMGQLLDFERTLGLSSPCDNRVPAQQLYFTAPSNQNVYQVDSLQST

[6] = target: T2, Dual specificity protein phosphatase 3; assay: MOA VHR1 Fluorescent secondary assay for identification of redox-state modulating compounds. [Related pubchem assays (depositor defined):AID1654, AID1661, AID1878, AID1957]
[7] = target: T2, Dual specificity protein phosphatase 3; assay: SAR VHR1 absorbance Assay for In Vitro dose response studies. [Related pubchem assays (depositor defined):AID1654, AID1661, AID1878, AID1992, AID2004]
[8] = target: T4, Tyrosine-protein phosphatase non-receptor type 7 (Homo sapiens, UniProt P35236); assay: redox-active compounds inhibiting HePTP phosphatase – biochemical, fluorescence, mechanism study (AID 2068); type: functional
T4 sequence (P35236 whole entry): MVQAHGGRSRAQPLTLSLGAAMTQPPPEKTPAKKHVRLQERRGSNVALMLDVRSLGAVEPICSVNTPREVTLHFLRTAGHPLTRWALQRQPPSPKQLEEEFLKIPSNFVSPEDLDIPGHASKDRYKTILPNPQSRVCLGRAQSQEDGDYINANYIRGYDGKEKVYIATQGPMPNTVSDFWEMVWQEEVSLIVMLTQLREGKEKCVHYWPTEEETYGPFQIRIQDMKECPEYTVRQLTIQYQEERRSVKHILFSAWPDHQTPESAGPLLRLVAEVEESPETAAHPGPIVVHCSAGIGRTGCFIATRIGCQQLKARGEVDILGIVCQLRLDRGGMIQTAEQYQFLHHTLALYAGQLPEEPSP

[9] = target: T2, Dual specificity protein phosphatase 3; assay: VHR phosphatase inhibition, dose response, selectivity assay for STEP inhibitor project, biochemical (AID 602374); type: functional; conditions: read-out: IC50_Mean
[10] = target: Tyrosine-protein phosphatase non-receptor type 5 (Homo sapiens, UniProt P54829); assay: PTPN5 enzyme inhibition – biochemical, fluorescence intensity, uHTS hits, confirmation (AID 602372); type: functional; conditions: read-out: IC50_Mean
[11] = target: T2, Dual specificity protein phosphatase 3; assay: SAR VHR1 Fluorescent Assay for In Vitro dose response studies. [Related pubchem assays (depositor defined):AID1654, AID1661, AID1878, AID1992, AID2004, AID2070, AID2085]; type: functional
[12] = target: T3, Dual specificity protein phosphatase 6; type: functional
[13] = target: T2, Dual specificity protein phosphatase 3; assay: VHR1 phosphatase inhibitors, biochemical (AID 1878)
[14] = target: T5, Ubiquitin-conjugating enzyme E2 N (Homo sapiens, UniProt P61088); type: functional;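 further: Dose-response confirmation in a TR-FRET assay detecting UBC13-driven polyubiquitin chain formation, inhibition measured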
T5 sequence (P61088 whole entry): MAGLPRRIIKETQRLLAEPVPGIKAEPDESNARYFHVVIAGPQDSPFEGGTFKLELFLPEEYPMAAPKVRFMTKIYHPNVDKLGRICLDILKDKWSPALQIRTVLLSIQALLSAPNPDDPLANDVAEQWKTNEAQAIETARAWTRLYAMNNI

[15] = Cytotoxicity screening for potential Inhibitors of Bacterial Capsule Biogenesis. [Related pubchem assays (depositor defined):AID488970]; type: functional
[16] = target: T6, Nuclear receptor subfamily 0 group B member 1 (Homo sapiens, UniProt P51843); assay: Luminescence-based cell-based high throughput dose response assay for inhibitors of the orphan nuclear receptor subfamily 0, group B, member 1 (DAX1; NR0B1). [Related pubchem assays (depositor defined):AID504766, AID504790]; type: functional
T6 sequence (P51843 whole entry): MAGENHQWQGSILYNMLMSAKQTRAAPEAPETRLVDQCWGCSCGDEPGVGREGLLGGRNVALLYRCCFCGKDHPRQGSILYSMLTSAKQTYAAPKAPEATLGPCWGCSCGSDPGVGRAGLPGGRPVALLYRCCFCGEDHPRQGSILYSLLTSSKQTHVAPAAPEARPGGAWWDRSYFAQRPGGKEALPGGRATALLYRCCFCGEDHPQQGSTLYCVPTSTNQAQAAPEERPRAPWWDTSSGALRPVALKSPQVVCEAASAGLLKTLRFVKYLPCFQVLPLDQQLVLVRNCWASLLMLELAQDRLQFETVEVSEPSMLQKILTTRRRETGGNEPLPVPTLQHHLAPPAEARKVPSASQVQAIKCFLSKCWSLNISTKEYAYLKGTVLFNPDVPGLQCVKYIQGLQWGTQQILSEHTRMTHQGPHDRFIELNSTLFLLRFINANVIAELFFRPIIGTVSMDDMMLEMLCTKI

[17] = target: T7, Oxysterols receptor LXR-beta (Homo sapiens, UniProt P55055); type: functional, cell-based;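 further: agonist activity at LXR measured by a cell-based luminescence readout across a dose range, run as a counterscreen for daf-12 agonists; HEK293 cells with Gal4-LXR fusion and GAL4-driven luciferase reporter; potency for activation of Gal4-LXR reporter so compounds are agonists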
T7 sequence (P55055 whole entry): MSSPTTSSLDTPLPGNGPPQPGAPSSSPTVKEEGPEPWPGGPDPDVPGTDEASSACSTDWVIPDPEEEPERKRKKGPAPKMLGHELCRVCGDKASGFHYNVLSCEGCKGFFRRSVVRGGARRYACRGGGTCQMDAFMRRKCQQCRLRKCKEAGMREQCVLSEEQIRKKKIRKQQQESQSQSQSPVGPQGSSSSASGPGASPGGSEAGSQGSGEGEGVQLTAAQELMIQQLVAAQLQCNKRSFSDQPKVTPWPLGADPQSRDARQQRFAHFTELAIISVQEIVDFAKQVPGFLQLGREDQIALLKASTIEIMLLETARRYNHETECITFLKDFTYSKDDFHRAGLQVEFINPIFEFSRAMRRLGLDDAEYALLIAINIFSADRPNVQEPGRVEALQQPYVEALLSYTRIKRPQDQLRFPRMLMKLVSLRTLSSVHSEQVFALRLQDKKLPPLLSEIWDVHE

[18] = target: Mu-type opioid receptor (Homo sapiens, UniProt P35372); type: functional, cell-based;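 further: U2OS cells with beta-arrestin recruitment to OPRM1 by beta-gal complementation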
[19] = test system: HEK293; assay: cells; type: functional, cell-based; conditions: Homo sapiens
[20] = target: SWI/SNF-related matrix-associated actin-dependent regulator of chromatin subfamily A member 2 (Homo sapiens, UniProt P51531); assay: Luminescence-based cell-based high throughput dose response assay to identify activators of the function of SWI/SNF related, matrix associated, actin dependent regulator of chromatin, subfamily a, member 2 (SMARCA2, BRM).; type: functional
[21] = target: 5-hydroxytryptamine receptor 2A (Mus musculus, UniProt P35363); type: functional, cell-based;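 further: CHO-K1 cells with tagged receptor and beta-arrestin; agonist potency measured as compound-induced activation of the receptor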
[22] = target: Cyclin-dependent kinase 5/CDK5 activator 1 (Homo sapiens, UniProt Q00535); assay: blockade of human CDK5 activity – biochemical, cherry-picked samples, set 2, dose response (AID 504545)
[23] = Counterscreen for activators of the function of SWI/SNF related, matrix associated, actin dependent regulator of chromatin, subfamily a, member 2 (SMARCA2, BRM): Luminescence-based cell-based high throughput dose response assay to identify non-selective compounds using the VP16 reporter assay.; type: functional
[24] = target: Dual specificity tyrosine-phosphorylation-regulated kinase 1A (Rattus norvegicus, UniProt Q63470); type: biochemical, Homo sapiens
[25] = target: Cystic fibrosis transmembrane conductance regulator/Golgi-associated PDZ and coiled-coil motif-containing protein (Homo sapiens, UniProt P13569+Q9HD26); assay: potency against CAL PDZ-peptide interaction – biochemical, fluorescence polarization, Cerulean-tagged CAL PDZ, cherry-picks, dose response (AID 504773)
Chain of Cystic fibrosis transmembrane conductance regulator/Golgi-associated PDZ and coiled-coil motif-containing protein (P13569 whole entry, other chains not shown): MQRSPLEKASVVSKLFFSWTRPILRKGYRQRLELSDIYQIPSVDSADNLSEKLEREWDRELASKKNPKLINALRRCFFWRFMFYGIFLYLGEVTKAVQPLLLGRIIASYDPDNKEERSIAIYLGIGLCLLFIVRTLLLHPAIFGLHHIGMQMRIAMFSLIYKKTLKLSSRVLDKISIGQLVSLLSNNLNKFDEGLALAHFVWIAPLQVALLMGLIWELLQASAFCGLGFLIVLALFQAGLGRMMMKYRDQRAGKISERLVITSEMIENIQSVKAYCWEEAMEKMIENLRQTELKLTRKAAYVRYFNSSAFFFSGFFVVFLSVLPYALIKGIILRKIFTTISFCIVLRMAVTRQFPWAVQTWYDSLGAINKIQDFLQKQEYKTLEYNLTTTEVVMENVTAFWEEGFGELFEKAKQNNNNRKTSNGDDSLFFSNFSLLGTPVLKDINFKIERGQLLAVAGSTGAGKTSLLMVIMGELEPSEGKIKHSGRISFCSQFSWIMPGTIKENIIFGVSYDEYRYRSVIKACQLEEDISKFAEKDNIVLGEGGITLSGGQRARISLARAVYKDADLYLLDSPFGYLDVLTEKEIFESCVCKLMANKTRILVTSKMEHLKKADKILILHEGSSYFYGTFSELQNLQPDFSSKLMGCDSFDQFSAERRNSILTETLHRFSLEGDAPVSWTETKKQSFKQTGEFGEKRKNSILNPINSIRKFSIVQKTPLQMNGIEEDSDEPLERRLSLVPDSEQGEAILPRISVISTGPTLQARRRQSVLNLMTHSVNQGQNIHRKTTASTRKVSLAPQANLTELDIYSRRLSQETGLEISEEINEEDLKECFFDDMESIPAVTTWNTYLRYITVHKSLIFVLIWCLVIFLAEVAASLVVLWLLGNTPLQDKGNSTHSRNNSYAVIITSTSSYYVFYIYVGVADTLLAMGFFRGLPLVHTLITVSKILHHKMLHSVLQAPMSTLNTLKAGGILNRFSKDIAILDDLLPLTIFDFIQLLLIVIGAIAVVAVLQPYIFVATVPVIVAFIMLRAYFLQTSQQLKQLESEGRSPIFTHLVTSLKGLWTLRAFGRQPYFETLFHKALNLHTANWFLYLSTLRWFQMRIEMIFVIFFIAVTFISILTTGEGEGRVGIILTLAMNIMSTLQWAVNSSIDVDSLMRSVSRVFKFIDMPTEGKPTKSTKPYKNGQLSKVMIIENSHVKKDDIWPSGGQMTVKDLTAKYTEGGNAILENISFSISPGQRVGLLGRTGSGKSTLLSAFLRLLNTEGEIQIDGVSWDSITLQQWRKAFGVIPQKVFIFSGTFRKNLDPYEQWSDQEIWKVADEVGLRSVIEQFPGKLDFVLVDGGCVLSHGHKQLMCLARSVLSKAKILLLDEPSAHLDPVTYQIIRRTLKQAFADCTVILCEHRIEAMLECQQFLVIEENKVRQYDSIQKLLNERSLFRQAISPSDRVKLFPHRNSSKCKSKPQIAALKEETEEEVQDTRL

T2 sequence (P51452 whole entry): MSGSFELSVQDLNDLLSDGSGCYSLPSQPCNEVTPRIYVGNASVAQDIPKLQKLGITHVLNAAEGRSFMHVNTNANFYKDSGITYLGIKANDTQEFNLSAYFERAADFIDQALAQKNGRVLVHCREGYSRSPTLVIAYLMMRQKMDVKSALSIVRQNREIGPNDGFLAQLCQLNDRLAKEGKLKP
T1 sequence (P11940 whole entry, the tested form may be a part): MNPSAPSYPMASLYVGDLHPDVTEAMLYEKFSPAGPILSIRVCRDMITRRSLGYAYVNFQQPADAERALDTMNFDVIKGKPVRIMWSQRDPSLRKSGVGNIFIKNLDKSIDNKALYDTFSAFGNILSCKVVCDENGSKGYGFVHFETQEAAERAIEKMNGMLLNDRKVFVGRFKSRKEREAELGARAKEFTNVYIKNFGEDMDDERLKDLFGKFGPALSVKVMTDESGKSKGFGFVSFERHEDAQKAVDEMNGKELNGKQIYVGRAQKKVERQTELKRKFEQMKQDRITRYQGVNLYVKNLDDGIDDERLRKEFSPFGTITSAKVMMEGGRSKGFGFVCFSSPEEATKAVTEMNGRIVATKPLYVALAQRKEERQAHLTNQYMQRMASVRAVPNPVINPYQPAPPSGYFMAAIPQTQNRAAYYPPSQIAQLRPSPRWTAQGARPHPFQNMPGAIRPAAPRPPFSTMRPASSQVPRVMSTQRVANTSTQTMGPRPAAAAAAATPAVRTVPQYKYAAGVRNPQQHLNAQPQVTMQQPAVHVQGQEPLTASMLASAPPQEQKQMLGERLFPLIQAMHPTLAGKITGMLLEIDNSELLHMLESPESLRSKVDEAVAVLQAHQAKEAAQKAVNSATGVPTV
Chain of Tyrosine-protein phosphatase non-receptor type 11 (Q06124 whole entry): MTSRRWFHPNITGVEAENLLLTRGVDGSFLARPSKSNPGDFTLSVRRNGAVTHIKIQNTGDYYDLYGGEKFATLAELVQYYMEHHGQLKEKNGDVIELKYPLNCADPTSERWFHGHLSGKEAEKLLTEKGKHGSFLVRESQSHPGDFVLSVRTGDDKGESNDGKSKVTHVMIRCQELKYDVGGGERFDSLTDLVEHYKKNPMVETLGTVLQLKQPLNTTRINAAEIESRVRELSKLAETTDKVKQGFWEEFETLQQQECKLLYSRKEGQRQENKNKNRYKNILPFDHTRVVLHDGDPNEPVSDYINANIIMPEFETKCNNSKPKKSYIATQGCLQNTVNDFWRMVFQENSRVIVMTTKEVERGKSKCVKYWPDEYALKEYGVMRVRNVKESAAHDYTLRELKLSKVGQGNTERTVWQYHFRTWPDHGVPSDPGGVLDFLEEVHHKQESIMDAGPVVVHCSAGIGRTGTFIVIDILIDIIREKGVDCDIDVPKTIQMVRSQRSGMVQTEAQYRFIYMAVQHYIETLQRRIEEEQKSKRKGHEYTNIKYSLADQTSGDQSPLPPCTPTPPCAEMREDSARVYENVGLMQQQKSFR
Chain of Cyclin-dependent kinase 5/CDK5 activator 1 (Q00535 whole entry): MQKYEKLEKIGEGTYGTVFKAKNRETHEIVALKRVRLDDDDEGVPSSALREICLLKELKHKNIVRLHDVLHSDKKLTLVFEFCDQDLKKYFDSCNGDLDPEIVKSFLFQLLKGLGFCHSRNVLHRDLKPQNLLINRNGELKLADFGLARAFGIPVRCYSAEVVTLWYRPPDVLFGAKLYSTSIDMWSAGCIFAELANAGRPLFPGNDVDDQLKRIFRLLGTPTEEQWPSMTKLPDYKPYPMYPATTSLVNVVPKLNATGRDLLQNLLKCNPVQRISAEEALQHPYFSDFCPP
Chain of Cyclin-dependent kinase 5/CDK5 activator 1 (Q15078 whole entry, further chain): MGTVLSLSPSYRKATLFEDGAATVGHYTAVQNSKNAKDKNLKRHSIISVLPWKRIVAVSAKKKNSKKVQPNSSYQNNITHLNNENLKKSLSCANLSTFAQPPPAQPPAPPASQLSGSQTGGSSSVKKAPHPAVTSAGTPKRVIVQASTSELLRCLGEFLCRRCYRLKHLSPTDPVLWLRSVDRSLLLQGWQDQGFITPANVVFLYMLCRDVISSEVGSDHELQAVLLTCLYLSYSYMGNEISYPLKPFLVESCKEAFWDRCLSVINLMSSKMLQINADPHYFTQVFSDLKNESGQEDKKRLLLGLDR
Chain of Tyrosine-protein phosphatase non-receptor type 5 (P54829 whole entry): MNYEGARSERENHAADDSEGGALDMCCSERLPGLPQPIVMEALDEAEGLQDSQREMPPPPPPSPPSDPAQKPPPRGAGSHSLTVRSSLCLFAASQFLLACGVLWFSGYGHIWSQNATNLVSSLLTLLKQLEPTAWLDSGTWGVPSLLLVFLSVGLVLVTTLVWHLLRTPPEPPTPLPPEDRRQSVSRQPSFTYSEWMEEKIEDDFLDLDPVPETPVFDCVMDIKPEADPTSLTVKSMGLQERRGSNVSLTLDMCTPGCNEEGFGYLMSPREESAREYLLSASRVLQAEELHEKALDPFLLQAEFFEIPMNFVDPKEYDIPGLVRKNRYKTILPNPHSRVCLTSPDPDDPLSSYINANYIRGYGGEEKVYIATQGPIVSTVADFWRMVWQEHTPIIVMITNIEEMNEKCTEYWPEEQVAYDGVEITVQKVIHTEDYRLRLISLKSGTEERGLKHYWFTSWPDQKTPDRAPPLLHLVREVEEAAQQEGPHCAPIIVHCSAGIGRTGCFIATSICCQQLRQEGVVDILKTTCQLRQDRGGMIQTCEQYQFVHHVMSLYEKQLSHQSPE
Chain of Mu-type opioid receptor (P35372 whole entry): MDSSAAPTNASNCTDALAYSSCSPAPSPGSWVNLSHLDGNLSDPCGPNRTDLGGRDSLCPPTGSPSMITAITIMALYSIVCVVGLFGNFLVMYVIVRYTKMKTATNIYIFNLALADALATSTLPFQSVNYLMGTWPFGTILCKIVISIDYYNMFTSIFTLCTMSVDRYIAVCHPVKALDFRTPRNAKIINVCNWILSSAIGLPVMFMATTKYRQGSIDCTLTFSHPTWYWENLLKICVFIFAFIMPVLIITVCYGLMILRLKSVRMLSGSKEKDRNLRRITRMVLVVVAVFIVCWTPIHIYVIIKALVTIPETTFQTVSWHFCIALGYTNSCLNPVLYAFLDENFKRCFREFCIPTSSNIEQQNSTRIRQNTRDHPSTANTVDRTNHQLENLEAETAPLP
Chain of 5-hydroxytryptamine receptor 2A (P35363 whole entry): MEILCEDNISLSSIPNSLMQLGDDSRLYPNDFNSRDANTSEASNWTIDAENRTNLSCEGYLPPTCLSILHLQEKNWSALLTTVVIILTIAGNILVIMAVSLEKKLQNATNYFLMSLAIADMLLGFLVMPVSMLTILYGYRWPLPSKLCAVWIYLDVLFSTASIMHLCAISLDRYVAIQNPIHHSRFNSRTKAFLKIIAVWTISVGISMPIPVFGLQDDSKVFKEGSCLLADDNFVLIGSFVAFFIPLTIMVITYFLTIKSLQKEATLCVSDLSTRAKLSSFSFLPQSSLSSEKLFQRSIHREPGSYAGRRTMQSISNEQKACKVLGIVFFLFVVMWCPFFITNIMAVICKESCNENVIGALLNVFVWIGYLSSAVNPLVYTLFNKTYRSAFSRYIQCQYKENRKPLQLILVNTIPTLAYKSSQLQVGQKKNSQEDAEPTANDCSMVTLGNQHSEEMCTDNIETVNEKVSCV

For `COc1cc(C(=S)N2CCCCC2)ccc1O`, the IC50 [1] was > 66 µM (inactive), the IC50 [2] was 1.2 µM (active) and the IC50 [3] was 1.68 µM (active). For the same compound, the IC50 [4] was > 66 µM (inactive), the IC50 [5] was > 158 µM (not active) and the IC50 [6] was 127 nM (active) and 5.55 µM (active). The IC50 [7] was 0.958 µM (active), the IC50 [8] was 84.6 nM (active) and 3.16 µM (active) and the IC50 [9] was 0.331 µM (active). For the same compound, the IC50 [10] was 5.11 µM (active), the IC50 [11] was 366 nM (active) and > 100 µM (inactive) and the IC50 [12] was > 100 µM (inactive). The IC50 [13] was 3.34 µM (active).
With `Cc1cc(C)c(NC(=O)C[N+](C)(C)CC(O)COc2cccc3ccccc23)c(C)c1` (stereo not given) the IC50 [14] was > 20 µM (inactive) and the CC50 [15] was 15.6 µM (active).
For `N#Cc1c(Br)n(C2OC(CO)C(O)C2O)c2ncnc(N)c12` (stereo not given), the IC50 [16] was > 67.5 µM (inactive), the EC50 [17] was > 67.5 µM (inactive) and the EC50 [18] was 92.4 µM (inactive). For the same compound, the IC50 [19] was > 67.5 µM (inactive), the EC50 [20] was > 91.1 µM (inactive) and the EC50 [21] was 0.482 µM (active). For the same compound, the AC50 [22] was 184 µM (active), the EC50 [23] was > 91.1 µM (inactive) and the AC50 [24] was 2.09 µM (active).
With `COC(=O)[C@H]1[C@H]2C[C@@H]3c4[nH]c5cc(OC)ccc5c4CCN3C[C@H]2C[C@@H](OC(=O)/C=C/c2cc(OC)c(OC)c(OC)c2)[C@@H]1OC` [RESCINNAMINE] the AC50 [25] was 142 µM (active).
